The results in this text go back to US20240174696A1, “2,8-DIAZASPIRO[4.5]DECANE COMPOUNDS” (Genentech, Inc., priority 2021, published 2024).

Assay [1] concerns the target T1, Human LATS2 catalytic domain (Homo sapiens (Human), UniProt Q9NRM7). Description: Standard LATS2 HTRF Assay. The format is biochemical. The note with it: asterisk: Standard LATS2 HTRF Assay, 50 μM ATP, 0.2 nM LATS2. How it is done:
Human LATS2 catalytic domain which contains the amino acids G553-V1088 (accession NP_055387) was purified in-house. The LATS2 catalytic domain was co-purified with Mob1b (accession NP_775739). The LATS2 biochemical HTRF assay was performed using the HTRF KinEASE-STK S1 Kit (Cisbio, Cat #62ST1PEC), following the protocol from the manufacturer. Compounds were dispensed by the Echo Liquid Handler (Labcyte) into a white 384-well plate (PerkinElmer, Cat #6008289). 3 uL of 2×LATS2 enzyme solution was added to the compounds, following by a 10 minute incubation at room temperature. Then, 2×ATP and STK S1 peptide solution was added to initiate the one hour enzyme reaction at room temperature. The final condition of the reaction was 0.2 nM LATS2, 50 μM ATP, 0.5 μM STK S1 peptide in 50 mM HEPES pH7.2, 10 mM MgCl2, 0.1% BGG, 0.005% Brij-35, 1 mM DTT. The reaction was quenched by adding 6 uL of the detection mixture which contained Streptavidin XL665 and STK Antibody-Cryptate (Cisbio), incubate for 1 hour at room temperature. The HTRF (665 nm/620 nm) signal was read on the Envision plater reader (PerkinElmer). The IC50 values were determined by fitting the % inhibition with a nonlinear four-parameter logistical equation. The Ki values were calculated using the Cheng-Prusoff equation for a competitive inhibitor, IC50═Ki (1+S/Km)+M [E] with ATP Km for LATS2=105 μM.

Assay [2] has as its target T1, Human LATS2 catalytic domain. Description: LATS2 High ATP HTRF Assay. The note with it: no asterisk: LATS2 High ATP HTRF Assay, 5000 μM ATP, 0.05 nM LATS2. The format is biochemical. An outline of the steps: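 Phosphorylation of 0.5 μM STK S1 peptide at high ATP (5000 μM), 2 h at room temperature, by 0.05 nM LATS2 kinase domain/Mob1b complex after 10 min compound pre-incubation. Ki derived from HTRF-based IC50 (4-parameter logistic) by Cheng-Prusoff, ATP Km 105 μM.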
For orientation: TR-FRET usually uses a lanthanide donor and a delayed reading to cut background.

Assay [3] relates to TAZ nuclear translocation in SW1990 cells. Description: TAZ Nuclear Translocation Assay. Type of assay: cell-based. The note with it: Homo sapiens, 4 hours. Put shortly:
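SW1990 cells in RPMI1640/10% FBS treated with compounds for 4 h at 37 °C, then fixed and immunostained for TAZ with Hoechst nuclear counterstain and imaged by high-content imaging. Read-out is the nuclear/cytoplasmic-ring fluorescence ratio, normalized to DMSO (0%) and an inhibitor control (100%); EC50 from four-parameter fit.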

Each structure is given as a SMILES string.

T1 sequence (Q9NRM7 553-1088): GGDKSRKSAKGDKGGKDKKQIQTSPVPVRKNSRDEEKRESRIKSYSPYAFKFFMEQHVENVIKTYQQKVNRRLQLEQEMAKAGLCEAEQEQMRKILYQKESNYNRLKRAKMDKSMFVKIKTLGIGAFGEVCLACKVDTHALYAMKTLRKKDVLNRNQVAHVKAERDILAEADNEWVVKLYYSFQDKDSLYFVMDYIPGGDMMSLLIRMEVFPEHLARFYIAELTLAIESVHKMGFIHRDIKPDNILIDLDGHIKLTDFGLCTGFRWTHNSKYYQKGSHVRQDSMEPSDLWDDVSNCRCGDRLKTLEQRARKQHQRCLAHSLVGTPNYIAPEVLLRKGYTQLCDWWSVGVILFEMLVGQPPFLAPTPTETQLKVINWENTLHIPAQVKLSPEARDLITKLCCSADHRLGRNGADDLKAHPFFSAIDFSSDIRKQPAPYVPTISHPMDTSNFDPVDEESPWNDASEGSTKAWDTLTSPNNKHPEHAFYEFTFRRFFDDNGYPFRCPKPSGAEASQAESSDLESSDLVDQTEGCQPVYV
T1 sequence (Q7L9L4 whole entry partner, the tested form may be a part): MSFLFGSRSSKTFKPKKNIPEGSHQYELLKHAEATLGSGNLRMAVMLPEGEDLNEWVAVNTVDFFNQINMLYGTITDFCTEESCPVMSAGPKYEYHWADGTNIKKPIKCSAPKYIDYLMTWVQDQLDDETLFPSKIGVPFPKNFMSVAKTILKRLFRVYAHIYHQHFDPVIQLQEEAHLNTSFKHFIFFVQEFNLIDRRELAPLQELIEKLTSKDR

As for `O=C1CC2(CCN(c3nc(-c4ccncc4)nc4cnccc34)CC2)CN1` [Compound 164, 8-(2-(pyridin-4-yl)pyrido[3,4-d]pyrimidin-4-yl)-2,8-diazaspiro[4.5]decan-3-one], the Ki (as a rule, a measure of affinity in units of concentration, obtained from inhibition or displacement) in assay [1] was determined as 9.42 nM; in assay [2], 53.5 nM. For the same compound, the EC50 (in general, the concentration needed to bring the measured effect to its halfway point) in assay [3] was greater than 10000 nM.
Consider `O=C1NCCC12CCN(c1nc(-c3ccncc3)nc3cnccc13)CC2` [Compound 165, 8-(2-(pyridin-4-yl)pyrido[3,4-d]pyrimidin-4-yl)-2,8-diazaspiro[4.5]decan-1-one], for which the Ki in assay [1] was 3.93 nM; in assay [2], 5.35 nM. The EC50 in assay [3] was 6500 nM.
